For one data set, the system named is T1, JNK.
T1 construct: Human JNK2α2 assay contains 1 nM enzyme; Human JNK1α1 assay contains 2 nM enzyme
As to the kind of experiment: JNK Assay in vitro (phosphorylation of GST-ATF2 with [γ-33P] ATP). Format: biochemical, Human. Particulars: IC50 affinity values; JNK isoform (JNK1α1, JNK2α2 or JNK3) not stated; Km concentrations of ATP and substrate; 30° C. for 30 min. The protocol: JNK activity was measured by phosphorylation of GST-ATF2 (19-96) with [-^33P] ATP. […] Human JNK2α2 assay contains 1 nM enzyme, 1 μM ATF2, 8 μM ATP with 1 uCi [γ-^33P] ATP. Human JNK1α1 assay contains 2 nM enzyme, 1 μM ATF2, 6 μM ATP with 1 μCi [γ-^33P] ATP. Human JNK3 (Upstate Biotech #14-501M) assay contains 2 nM enzyme, 1 μM ATF2, 4 μM ATP with 1 μCi [γ-^33P] ATP. The enzyme assay was carried out in the presence or absence of several compound concentrations. JNK and compound were pre-incubated for 10 min., followed by initiation of the enzymatic reaction by adding ATP and the substrate. The reaction mixture was incubated at 30° C. for 30 min. At the end of incubation, the reaction was terminated by transferring 25 μl of the reaction mixture to 150 μl of 10% glutathione Sepharose® slurry (Amersham #27-4574-01) containing 135 mM EDTA. The reaction product was captured on the affinity resin, and washed on a filtration plate (Millipore, MABVNOB50) with phosphate buffered saline for six times to remove free radionucleotide. The incorporation of ^33P into ATF2 was quantified on a microplate scintillation counter (Packard Topcount). Compound inhibition potency on JNK was measured by IC50 value generated from ten concentration inhibition curves fitted into the 3-parameter model: % inhibition=Maximum/(1+(IC50/[Inhibitor])^slope). Data were analyzed on Microsoft Excel for parameter estimation.

Counter-ions that a name gives are not always drawn.

In general, melting point refers to the temperature of the solid-liquid transition. Turning to `CC(C)(O)c1cccc2c1nnn2-c1ccnc(N[C@H]2CC[C@H](C(=O)N3CCn4cnnc4C3)CC2)n1` (as salt: HCl) [Compound 38, (5,6-Dihydro-8H-[1,2,4]triazolo[4,3-a]pyrazin-7-yl)-(4-{4-[4-(1-hydroxy-1-methyl-ethyl)-benzotriazol-1-yl]-pyrimidin-2-ylamino}-cyclohexyl)-methanone], the melting point fell in the range of 180 to 200 °C. The same measure, in the same setting: under `O=C([C@H]1CC[C@H](Nc2nccc(-n3nnc4c(OC(F)F)cccc43)n2)CC1)N1CCn2cnnc2C1` (as salt: HCl) [Compound 44, {4-[4-(4-Dilfuoromethoxy-benzotriazol-1-yl)-pyrimidin-2-ylamino]-cyclohexyl}-(5,6-dihydro-8H-[1,2,4]triazolo[4,3-a]pyrazin-7-yl)-methanone] stands 185 to 190 °C; under `C=C(C)c1cccc2c1ccn2-c1ccnc(N[C@H]2CC[C@H](C(=O)N3CCn4cnnc4C3)CC2)n1` (as salt: HCl) [Compound 25, (5,6-Dihydro-8H-[1,2,4]triazolo[4,3-a]pyrazin-7-yl)-{4-[4-(4-isopropenyl-indol-1-yl)-pyrimidin-2-ylamino]-cyclohexyl}-methanone], 186 to 188 °C; under `Cc1nnc2n1CCN(C(=O)[C@H]1CC[C@H](Nc3nccc(-n4ccc5c(OC(F)F)cccc54)n3)CC1)C2` (as salt: HCl) [Compound 28, {4-[4-(4-Difluoromethoxy-indol-1-yl)-pyrimidin-2-ylamino]-cyclohexyl}-(3-methyl-5,6-dihydro-8H-[1,2,4]triazolo[4,3-a]pyrazin-7-yl)-methanone], 205 to 210 °C. The same measure, in the same setting: then `Cc1cccc2c1nnn2-c1ccnc(N[C@H]2CC[C@H](C(=O)N3CCn4cc(C(F)(F)F)nc4C3)CC2)n1` (as salt: HCl) [Compound 33, {4-[4-(4-Methyl-benzotriazol-1-yl)-pyrimidin-2-ylamino]-cyclohexyl}-(2-trifluoromethyl-5,6-dihydro-8H-imidazo[1,2-a]pyrazin-7-yl)-methanone], with 258 to 260 °C.

As a reminder, the IC50 is the concentration at which inhibition is half-maximal. `O=C([C@H]1CC[C@H](Nc2nccc(-n3ncc4c(C(F)(F)F)cccc43)n2)CC1)N1CCn2cnnc2C1` [Compound 29, (5,6-Dihydro-8H-[1,2,4]triazolo[4,3-a]pyrazin-7-yl)-{4-[4-(4-trifluoromethyl-indazol-1-yl)-pyrimidin-2-ylamino]-cyclohexyl}-methanone] returned a melting point of 223 to 227 °C. This compound also had an IC50 in the data set with JNK of 135 nM. Regarding `Cc1nnc2n1CCN(C(=O)[C@H]1CC[C@H](Nc3nccc(-n4ccc5c(OCCCS(C)(=O)=O)cccc54)n3)CC1)C2` (as salt: HCl) [Compound 23, (4-{4-[4-(3-Methanesulfonyl-propoxy)-indol-1-yl]-pyrimidin-2-ylamino}-cyclohexyl)-(3-methyl-5,6-dihydro-8H-[1,2,4]triazolo[4,3-a]pyrazin-7-yl)-methanone], the melting point lay in the range of 178 to 180 °C.

In turn, `Cc1nnc2n1CCN(C(=O)[C@H]1CC[C@H](Nc3nccc(-n4ncc5c(C(F)(F)F)cccc54)n3)CC1)C2` [Compound 30, (3-Methyl-5,6-dihydro-8H-[1,2,4]triazolo[4,3-a]pyrazin-7-yl)-{4-[4-(4-trifluoromethyl-indazol-1-yl)-pyrimidin-2-ylamino]-cyclohexyl}-methanone] registered a melting point of 258 to 260 °C. In the data set with JNK, this compound showed an IC50 of 165 nM. For `Cc1nnc2n1CCN(C(=O)[C@H]1CC[C@H](Nc3nccc(-n4nnc5c(C(C)(C)O)cccc54)n3)CC1)C2` (as salt: HCl) [Compound 39, (4-{4-[4-(1-Hydroxy-1-methyl-ethyl)-benzotriazol-1-yl]-pyrimidin-2-ylamino}-cyclohexyl)-(3-methyl-5,6-dihydro-8H-[1,2,4]triazolo[4,3-a]pyrazin-7-yl)-methanone], the melting point was 145 to 150 °C. In turn, `C=C(C)c1cccc2c1ccn2-c1ccnc(N[C@H]2CC[C@H](C(=O)N3CCn4c(C)cnc4C3)CC2)n1` (as salt: HCl) [Compound 10, {4-[4-(4-Isopropenyl-indol-1-yl)-pyrimidin-2-ylamino]-cyclohexyl}-(3-methyl-5,6-dihydro-8H-imidazo[1,2-a]pyrazin-7-yl)-methanone] displayed a melting point of 220 to 224.9 °C. Still for that read-out and setting: then `Cc1cnc2n1CCN(C(=O)[C@H]1CC[C@H](Nc3nccc(-n4ccc5c(OC(F)F)cccc54)n3)CC1)C2` (as salt: HCl) [Compound 11, {4-[4-(4-Difluoromethoxy-indol-1-yl)-pyrimidin-2-ylamino]-cyclohexyl}-(3-methyl-5,6-dihydro-8H-imidazo[1,2-a]pyrazin-7-yl)-methanone], with 190 to 195 °C; and `Cc1cccc2c1nnn2-c1ccnc(N[C@H]2CC[C@H](C(=O)N3CCn4cnnc4C3)CC2)n1` (as salt: HCl) [Compound 34, (5,6-Dihydro-8H-[1,2,4]triazolo[4,3-a]pyrazin-7-yl)-{4-[4-(4-methyl-benzotriazol-1-yl)-pyrimidin-2-ylamino]-cyclohexyl}-methanone], with 236 to 238 °C; and `O=C([C@H]1CC[C@H](Nc2nccc(-n3ccc4c(OC(F)F)cccc43)n2)CC1)N1CCn2cnnc2C1` (as salt: HCl) [Compound 27, {4-[4-(4-Difluoromethoxy-indol-1-yl)-pyrimidin-2-ylamino]-cyclohexyl}-(5,6-dihydro-8H-[1,2,4]triazolo[4,3-a]pyrazin-7-yl)-methanone], with 175 to 178 °C. On the same count and under the same terms, under `O=C([C@H]1CC[C@H](Nc2nccc(-n3ccc4c(OCC5CCS(=O)(=O)C5)cccc43)n2)CC1)N1CCn2cnnc2C1` (some centres unmarked) (as salt: HCl) [Compound 24, (5,6-Dihydro-8H-[1,2,4]triazolo[4,3-a]pyrazin-7-yl)-(4-{4-[4-(1,1-dioxo-tetrahydro-1λ6-thiophen-3-ylmethoxy)-indol-1-yl]-pyrimidin-2-ylamino}-cyclohexyl)-methanone] stands 215 to 220 °C; under `Cc1cccc2c1nnn2-c1ccnc(N[C@H]2CC[C@H](C(=O)N3CCn4c(C)nnc4C3)CC2)n1` (as salt: HCl) [Compound 35, {4-[4-(4-Methyl-benzotriazol-1-yl)-pyrimidin-2-ylamino]-cyclohexyl}-(3-methyl-5,6-dihydro-8H-[1,2,4]triazolo[4,3-a]pyrazin-7-yl)-methanone], 246 to 248 °C; under `O=C([C@H]1CC[C@@H](Nc2nccc(-n3nnc4c(C(F)(F)F)cccc43)n2)CC1)N1CCn2cnnc2C1` (as salt: HCl) [Compound 37, (5,6-Dihydro-8H-[1,2,4]triazolo[4,3-a]pyrazin-7-yl)-{4-[4-(4-trifluoromethyl-benzotriazol-1-yl)-pyrimidin-2-ylamino]-cyclohexyl}-methanone], 200 to 210 °C. `Cc1nnc2n1CCN(C(=O)[C@H]1CC[C@H](Nc3nccc(-n4nnc5c(OC(F)F)cccc54)n3)CC1)C2` (as salt: HCl) [Compound 45, {4-[4-(4-Difluoromethoxy-benzotriazol-1-yl)-pyrimidin-2-ylamino]-cyclohexyl}-(3-methyl-5,6-dihydro-8H-[1,2,4]triazolo[4,3-a]pyrazin-7-yl)-methanone]: the melting point fell in the range of 190 to 195 °C.

Compound `C=C(C)c1cccc2c1ccn2-c1ccnc(N[C@H]2CC[C@H](C(=O)N3CCn4c(C)nnc4C3)CC2)n1` (as salt: HCl) [Compound 26, {4-[4-(4-Isopropenyl-indol-1-yl)-pyrimidin-2-ylamino]-cyclohexyl}-(3-methyl-5,6-dihydro-8H-[1,2,4]triazolo[4,3-a]pyrazin-7-yl)-methanone] returned a melting point of 216.6 to 221 °C.
